Test results: patent US4874851A, “3',4'-dinitrogen substituted epipodophyllotoxin glucoside derivatives” (Bristol-Meyers Company, priority 1987, dated 1989)
≈ marks a conversion by molar mass, not a printed value.

Columns and labels:
B16-F10 murine melanoma = assay: In vitro cytotoxicity assay, B16-F10 murine melanoma; assay type: cell-based; details: four-fold serial dilution, <500 μg/ml positive, two lines per compound; for IC50: Mus musculus, B16-F10, inhibit cell growth by 50%, read-out: IC50 B-16-F10; for IC50 B-16-F10: inhibit cell growth by 50%
Method: (§1) Representative compounds of the present invention were evaluated for their antitumor activity in in vitro cytotoxicity assay against human and murine tumor cell lines, as well as against transplantable murine P388 leukemia.
(§2) The in vitro cytotoxicity assay involved growing various mammalian tumor cells, including human tumor cells, on microtitre plates employing established tissue culture methods. The concentration of each compound required to inhibit cell growth by 50% (IC50) was then determined by a four-fold serial dilution technique. The validity of the method has been supported by a report published in the "Proceedings of the American Association for Cancer Research", 1984, 25: 1891 (Abst. No. 328). Tumor cells of the following types were employed for each compound tested: B16-F10 murine melanoma; KB human nasopharyngyl; Moser human colon; SW900 human lung; M109 murine lung; and three human colon tumor cell lines namely HCT-116, HCT-VM, and HCT-VP, the latter two being resistant to teniposide (VM) and etoposide (VP), respectively. IC50 values less than 500 μg/ml are a positive indicator of antitumor activity. Table II presents IC50 values of various compounds of the present invention against the aforementioned cell lines.

P388 leukemia = assay: Antitumor activity against transplantable murine P388 leukemia in mice (i.p. implant); assay type: in vivo, murine (female CDF1 mice); details: i.p. on days 5 and 8; 10^6 ascites cells i.p.; maximum effect over doses; >=125 significant
Method: as §1
Female CDF1 mice were implanted intraperitoneally with a tumor inoculum of 10^6 ascites cells of P388 murine leukemia and treated with various doses of a test compound; four mice were used for each dose level and ten were used as saline-treated control. The compounds were administered by intraperitoneal injection on days 5 and 8 (day 1 being the day of tumor implantation). Antitumor activity was expressed as % T/C which is the ratio of the median survival time (MST) of drug-treated group to the MST of saline-treated control group. A compound showing a % T/C value of 125 or greater is generally considered to have significant antitumor activity in the P388 test. The experiment lasted 31 days at the end of which time the number of survivors was noted. Table I presents the results of the above-described evaluation; only the maximum % T/C and the dose showing the maximum effect are reported.

M109 murine lung = assay: In vitro cytotoxicity assay, M109 murine lung; assay type: cell-based; details: four-fold serial dilution, two lines per compound; for IC50: Mus musculus, M109, inhibit cell growth by 50%; for IC50 M109: inhibit cell growth by 50%
Method: as §1, §2

KB human nasopharyngyl = assay: In vitro cytotoxicity assay, KB human nasopharyngyl; assay type: cell-based; details: inhibit cell growth by 50%, four-fold serial dilution, two lines per compound
Method: as §1, §2

SW900 human lung = assay: In vitro cytotoxicity assay, SW900 human lung; assay type: cell-based; details: four-fold serial dilution, two lines per compound; for IC50: Homo sapiens, SW900, inhibit cell growth by 50%
Method: as §1, §2

HCT-116 = assay: In vitro cytotoxicity assay, HCT-116 human colon; assay type: cell-based; details: four-fold serial dilution, two lines per compound; for IC50: Homo sapiens, HCT-116, inhibit cell growth by 50%; for IC50 HCT-116: inhibit cell growth by 50%
Method: as §1, §2

Moser human colon = assay: In vitro cytotoxicity assay, Moser human colon; assay type: cell-based; details: inhibit cell growth by 50%, four-fold serial dilution, two lines per compound; for IC50: Homo sapiens
Method: as §1, §2

HCT/VM46 = assay: In vitro cytotoxicity assay, HCT/VM46 human colon, resistant to teniposide; assay type: cell-based; details: inhibit cell growth by 50%, two lines per compound
Method: as §1, §2

HCT/VP35 = assay: In vitro cytotoxicity assay, HCT/VP35 human colon, resistant to etoposide; assay type: cell-based; details: inhibit cell growth by 50%, two lines per compound
Method: as §1, §2

[1] = system: small cell lung cancer, non-lymphocytic leukemia, and non-seminomatous testicular cancer; details: AMA Drug Evaluation, 5th Edition, 1983; cited from earlier work

Structure (SMILES)	IC50 (B16-F10 murine melanoma) [µg/mL]	IC50 B-16-F10 (B16-F10 murine melanoma) [µg/mL]	Max. % T/C (median survival time treated / saline control) (P388 leukemia) [%]	IC50 (M109 murine lung) [µg/mL]	IC50 M109 (M109 murine lung) [µg/mL]	IC50 (KB human nasopharyngyl; Homo sapiens) [µg/mL]	IC50 KB (KB human nasopharyngyl) [µg/mL]	IC50 (SW900 human lung) [µg/mL]	IC50 (HCT-116) [µg/mL]	IC50 HCT-116 (HCT-116) [µg/mL]	IC50 (Moser human colon) [µg/mL]	IC50 MOSER (Moser human colon) [µg/mL]	IC50 SW900 (SW900 human lung; inhibit cell growth by 50%) [µg/mL]	IC50 (HCT/VM46; Homo sapiens) [µg/mL]	IC50 HCT/VM46 (HCT/VM46) [µg/mL]	IC50 (HCT/VP35; Homo sapiens, HCT/VP35, etoposide-resistant) [µg/mL]	IC50 HCT/VP35 (HCT/VP35; etoposide-resistant) [µg/mL]	activity in the treatment of a variety of cancers (in words) [1]
COC1=CC(C2c3cc4c(cc3C(OC3OC5COC(C)OC5C(O)C3O)C3COC(=O)C23)OCO4)=CC(=NOCc2ccccc2)C1=NOCc1ccccc1 (stereo not shown) [Example 1, 4'-Dehydroxy-3'-demethoxy-etoposide 3',4'-bis-O-benzyloxime]	14.5 (≈ 18.5 µM)	14.1 (≈ 18 µM)	126	83 (≈ 106 µM)	59 (≈ 75.4 µM)	37 (≈ 47.3 µM)	28 (≈ 35.8 µM)											
CON=C1C=C(C2c3cc4c(cc3C(OC3OC5COC(C)OC5C(O)C3O)C3COC(=O)C23)OCO4)C=C(OC)C1=NOC (stereo not shown) [Example 2, 4'-Dehydroxy-3'-demethoxy-etoposide 3',4'-bis-O-methyloxime]	29 (≈ 46 µM)	51 (≈ 80.9 µM)	175					> 250	84 (≈ 133 µM)	91 (≈ 144 µM)	54 (≈ 85.6 µM)	40 (≈ 63.4 µM)						
COc1cc(C2c3cc4c(cc3C(OC3OC5COC(C)OC5C(O)C3O)C3COC(=O)C23)OCO4)cc(N)c1N (stereo not shown) [Example 3, 4'-Dehydroxy-3'-demethoxy-3',4'-diamino etoposide]			216	104 (≈ 182 µM)	87 (≈ 152 µM)				108 (≈ 189 µM)	102 (≈ 178 µM)	87 (≈ 152 µM)	91 (≈ 159 µM)						
COc1cc(C2c3cc4c(cc3C(OC3OC5COC(C)OC5C(O)C3O)C3COC(=O)C23)OCO4)cc(NC(C)=O)c1NC(C)=O (stereo not shown) [Example 4, 4'-Dehydroxy-3'-demethoxy-3',4'-bis-acetylamino etoposide]	116 (≈ 177 µM)	98 (≈ 149 µM)	105					> 250	> 250		106 (≈ 161 µM)	123 (≈ 187 µM)						
COc1cc(C2c3cc4c(cc3C(OC3OC5COC(C)OC5C(O)C3O)C3COC(=O)C23)OCO4)cc(N=Cc2ccncc2)c1N=Cc1ccncc1 (stereo not shown) [Example 10, 4'-Dehydroxy-3'-demethoxy-3',4'-bis-(4-pyridylmethylene) amino Etoposide]	59 (≈ 78.6 µM)	100 (≈ 133 µM)	145					> 250	81 (≈ 108 µM)	103 (≈ 137 µM)								
COc1cc(C2c3cc4c(cc3C(OC3OC5COC(C)OC5C(O)C3O)C3COC(=O)C23)OCO4)cc2nn[nH]c12 (stereo not shown) [Example 17, 4'-Dehydroxy-3'-demethoxy-etoposide 3',4'-triazole]	45 (≈ 77.1 µM)	55 (≈ 94.3 µM)	125					78 (≈ 134 µM)	53 (≈ 90.8 µM)	62 (≈ 106 µM)	91 (≈ 156 µM)	88 (≈ 151 µM)	89 (≈ 153 µM)	64 (≈ 110 µM)	88 (≈ 151 µM)	84 (≈ 144 µM)	82 (≈ 141 µM)	
COc1cc(C2c3cc4c(cc3C(OC3OC5COC(C)OC5C(O)C3O)C3COC(=O)C23)OCO4)cc2nc[nH]c12 (stereo not shown) [Example 18, 4'-Dehydroxy-3'-demethoxy etoposide 3',4'-imidazole]	82 (≈ 141 µM)	55 (≈ 94.4 µM)	115					> 250	> 250		116 (≈ 199 µM)	115 (≈ 197 µM)						
COc1cc(C2c3cc4c(cc3C(OC3OC5COC(C)OC5C(O)C3O)C3COC(=O)C23)OCO4)cc2nc(C)c(C)nc12 (stereo not shown) [Example 20, 4'-Dehydroxy-3'-demethoxy-etoposide 3',4'-(2,3-dimethylpyrazine)]	118 (≈ 190 µM)	113 (≈ 181 µM)	110					> 250	103 (≈ 165 µM)	99 (≈ 159 µM)	113 (≈ 181 µM)	90 (≈ 145 µM)						
CCOP1(=S)Nc2cc(C3c4cc5c(cc4C(OC4OC6COC(C)OC6C(O)C4O)C4COC(=O)C34)OCO5)cc(OC)c2N1 (stereo not shown) [Example 21, 4'-Dehydroxy-3'-demethoxy etoposide 3',4'-ethylthiophosphamide]	23 (≈ 33.9 µM)	17.9 (≈ 26.4 µM)	145					> 250	20 (≈ 29.5 µM)	26 (≈ 38.3 µM)	21 (≈ 30.9 µM)	23 (≈ 33.9 µM)						
COc1cc([C@@H]2c3cc4c(cc3[C@@H](O[C@@H]3O[C@@H]5CO[C@@H](C)O[C@H]5[C@H](O)[C@H]3O)[C@H]3COC(=O)[C@H]23)OCO4)cc(OC)c1O [etoposide]																		active in the treatment of a variety of cancers
COc1cc([C@@H]2c3cc4c(cc3[C@@H](O[C@@H]3O[C@@H]5CO[C@@H](c6cccs6)O[C@H]5[C@H](O)[C@H]3O)[C@H]3COC(=O)[C@H]23)OCO4)cc(OC)c1O [teniposide]																		active in the treatment of a variety of cancers
